Starred links: 1 amine or outer side, 2 acyl side, 3 side chain; linkers in the order of their positions; H or OH if unused. Positions of bridges follow the written chain, without caps; N, C: chain ends. Non-standard residues stand in square brackets, D forms with d. Residues, ends and D or L forms follow the SMILES beside them. *: point of attachment. hTyr(3S-OH,4S-OH,3'-OSO3H) = N[C@H](C(=O)O)[C@H](O)[C@@H](O)c1ccc(O)c(OS(=O)(=O)O)c1; Orn(4R-OH,5R-OH) = O=C([C@H](C[C@@H](O)[C@@H](O)N[*:3])N[*:1])[*:2]; Pro(3S-OH,4S-Me) = C[C@H]1CN[C@H](C(=O)O)[C@H]1O; X1 = CCCCCOc1ccc(-c2cc(-c3ccc(C(=O)*)cc3)no2)cc1; Gln(3R-OH) = NC(=O)C[C@@H](O)[C@H](N)C(=O)O; Hyp = O=C(O)[C@@H]1C[C@@H](O)CN1
Tests used:
A. terreus isolates = conditions: Baddley et al. 2009; cited from earlier work
Aspergillus fumigatus = assay: Antifungal exposure of 48-hour hyphal cultures, headspace VOC release by GC-MS (Example 1); assay type: cell-based; set-up: increase in some of the key A. fumigatus VOC features / change of key A. fumigatus VOC features at 24 hours: dose or concentration left out as unconfirmed; conditions: for change of key A. fumigatus VOC features at 24 hours: vs matched controls
Description: For each experiment, 10^4 conidia were inoculated into 5 mL of microbial media (either nutrient Yeast Extract Peptone Dextrose (YPD) broth, nutrient poor Aspergillus minimal media (Pontecorvo et al., Advan Genet 1953; 5:141-238), or under iron-starved, alkaline stress, or nitrogen-depleted conditions (McDonagh et al., PLoS Pathog 2008; 4:e1000154)) in 20 mL glass vials with an airtight crimp top incorporating a rubber septum. Cultures were incubated for 24-144 hours at 200 rpm and 37° C. and headspace gas was dynamically adsorbed, using argon carrier gas and an air sampling pump calibrated to 20 mL/minute, onto Markes thermal desorption traps containing tandem beds of Tenax TA (200 mg), Carbograph 1 TD (100 mg), and Carboxen 1003 (100 mg), optimized to retain VOCs of diverse size and polarity.
Headspace VOCs were also collected after exposure of a subset of fungal isolates to the antifungal drugs voriconazole, liposomal amphotericin B, and micafungin, each at a concentration of […].
VOCs were desorbed onto a dual GC-MS/DMS system (FIG. 1)—the eluent from the gas chromatograph was split between the MS, to allow identification of each compound, and the DMS, an extremely sensitive and selective gas detector that can be easily used as a point-of-care gas detection device, to determine the mobility pattern for each compound. The NIST MS Search 2.0 Library was used to identify VOCs in the total ion chromatogram (TIC) of the GC-MS data. Differences in spectral features of DMS output were visually distinguished between the positive ion spectra of A. fumigatus and A. terreus and principal component analysis (PCA) was used to evaluate the degree of class discrimination between these fungal species using algorithms in MATLAB (Version R2012a).
Whether exposure to antifungal drugs might modulate VOC release in Aspergillus fumigatus was assessed in vitro.

[1] = tested on: A. fumigatus Af293 and A1163; assay: A. fumigatus volatome response to antifungal drug exposure, headspace TD-GC-MS (Example 2); assay type: cell-based, Aspergillus fumigatus; conditions: 1.0 μg/mL; for all volatile metabolites 36 hours later: 36 hours after the 12-hour sampling
Description: We assessed whether we could modulate the A. fumigatus VOC metabolome with voriconazole, micafungin, and liposomal amphotericin B antifungal drug exposure, as described online (Methods). Headspace volatile metabolites of A. terreus, A. flavus, A. niger, and A. calidoustus were characterized as outlined above, in YPD broth at 96 hours.
Assessment of the A. fumigatus volatome response to antifungal drug exposure: For an assessment of A. fumigatus VOC response to antifungal drug exposure, 10^4A. fumigatus Af293 and A1163 conidia were inoculated into YPD broth and incubated at 37° C. at 250 rpm for 48 hours, then exposed to an inhibitory dose (1.0 μg/mL) of voriconazole (Pfizer Inc., New York, N.Y.), micafungin, liposomal amphotericin (both Astellas Pharma US, Inc., Northbrook, Ill.), or no antifungal therapy for 12 hours, in 4 technical replicates, with matched media controls exposed to the same conditions. VOCs in the headspace of each vial were extracted onto thermal desorption tubes. The cultures and media samples were incubated at 37° C. at 250 rpm for another 36 hours, with repeat extraction of the headspace gas onto thermal desorption tubes.
For both in vitro culture headspace extractions and patient breath samples, VOCs were thermally desorbed onto an automated thermal desorption unit (TD-100, Markes International) at 290° C. for 20 minutes with helium carrier gas at a flow rate of 40 mL per minute and concentrated onto a Unity2/TD-100 cold trap (U-15ATA-2S, Markes International). The cold trap was rapidly heated to 270° C. to deliver adsorbed VOCs (3.5:1 split) to a VF624 capillary column (30 m×0.32 mm, 6% cyanopropyl/phenyl, 94% polydimethylsiloxane, film thickness 1.8 μm, Agilent Technologies, Santa Clara, Calif.) with a gas chromatograph (GC) inlet temperature of 250° C. VOCs delivered to the capillary column were separated using a GC temperature program of 40° C. for 3 minutes, raised to 70° C. at a rate of 5° C. per minute and held for 3 minutes, raised to 203° C. at 7° C. per minute and held for 4 minutes, then rapidly raised to 270° C. and held for 5 minutes. A single quadrupole mass spectrometry (MS) detector (Agilent 5975, Agilent Technologies, Santa Clara, Calif.) was used to analyze and identify VOCs, with a MS source temperature of 230° C., MS quad temperature of 150° C., and an electron ionization parameter of […]. A mass range m/z 40-400 was measured with a threshold of 150.
We assessed whether we could modulate the A. fumigatus VOC metabolome with voriconazole, micafungin, and liposomal amphotericin B antifungal drug exposure. […]

[2] = drug added to 48-hour hyphal cultures, after 24 hours

C[C@@H]1[C@H](O)[C@@H](C)/C=C/C=C/C=C/C=C/C=C/C=C/C=C/[C@H](O[C@@H]2O[C@H](C)[C@@H](O)[C@H](N)[C@@H]2O)C[C@@H]2O[C@](O)(C[C@@H](O)C[C@@H](O)[C@H](O)CC[C@@H](O)C[C@@H](O)CC(=O)O[C@H]1C)C[C@H](O)[C@H]2C(=O)O [AMB, amphotericin B]
susceptibility of some A. terreus isolates (A. terreus isolates): resistant

C[C@@H](c1ncncc1F)[C@](O)(Cn1cncn1)c1ccc(F)cc1F [voriconazole]
change of key A. fumigatus VOC features at 24 hours (Aspergillus fumigatus; [2]): near-complete attenuation
primary metabolite, monoterpene, and sesquiterpene production ([1]; 12 hours of exposure): reduced
all volatile metabolites 36 hours later [1]: attenuation

CCCCCOc1ccc(-c2cc(-c3ccc(C(=O)N[C@H]4C[C@@H](O)[C@@H](O)NC(=O)[C@@H]5[C@@H](O)[C@@H](C)CN5C(=O)[C@H]([C@H](O)CC(N)=O)NC(=O)[C@H]([C@H](O)[C@@H](O)c5ccc(O)c(OS(=O)(=O)O)c5)NC(=O)[C@@H]5C[C@@H](O)CN5C(=O)[C@H]([C@@H](C)O)NC4=O)cc3)no2)cc1 [micafungin] (X1-[Orn(4R-OH,5R-OH)]T[Hyp][hTyr(3S-OH,4S-OH,3'-OSO3H)][Gln(3R-OH)][Pro(3S-OH,4S-Me)]; lactam 1-C)
increase in some of the key A. fumigatus VOC features (Aspergillus fumigatus; drug added to 48-hour hyphal cultures, after 24 hours, vs matched control samples without drug): ≤ 17 fold
change of key A. fumigatus VOC features at 24 hours (Aspergillus fumigatus; [2]): initial increase
change of key A. fumigatus VOC features with longer incubation (Aspergillus fumigatus; longer duration of incubation and hyphal death): attenuation
β-trans-bergamotene increase from baseline ([1]; 12 hours of exposure, 48-hour hyphae in YPD broth): 10 fold
all volatile metabolites 36 hours later [1]: near-complete attenuation
